Drawing on patent US20030039658A1, “MCEF, a novel transcription factor” (priority 2000, published 2003), this text covers cytotoxicity for one compound.

The nature of the series: Geldanamycin cytotoxicity. It counts as cell-based.

For the compound `COC1=C2C[C@@H](C)C[C@H](OC)[C@H](O)[C@@H](C)/C=C(\C)[C@H](OC(N)=O)[C@@H](OC)/C=C\C=C(/C)C(=O)NC(=CC1=O)C2=O` [Geldanamycin], the cytotoxicity result is reported as “primarily the result of GA cytotoxicity”.
